Assay results taken from patent US9464093B2, “Substituted imidazo[4',5':4,5]cyclopenta[1,2-e]pyrrolo[1,2-a]pyrazines and oxazolo[4',5':4,5]cyclopenta[1,2-e]pyrrolo[1,2-a]pyrazines for treating brain cancer” (Mayo Foundation for Medical Education and Research, priority 2012, dated 2016).
Entries after “also recorded” stand apart in the source; their conditions may differ.

Key:
Raji lymphoma cells [1] = assay: Cell proliferation assay, Raji lymphoma cells (Example 3); type: cell-based; conditions: 100, 500, or 1,000 nM; counted on the third day; vs vehicle
Experimental: Raji cells were purchased from American Tissue Culture (Manassas, Va.). […] Raji cells infected with lentivirus constructs were grown in selection media containing 2.5 μg/ml puromycin. For experiments, unless specified otherwise, all cells were switched back to maintenance media.
Two-tailed student T-test was used to analyze significant difference.

Raji lymphoma cells [2] = assay: Raji orthotopic murine CNS lymphoma model; type: in vivo, athymic mice; conditions: 1, 2.5 or 5 mg/kg i.p. for four days; vs vehicle control
Experimental: Athymic mice (nu/nu; 8-10 weeks old) were anesthetized with gasiform isofluorane and 25,000 Raji cells transfected with luciferase (as described in in vitro study) were stereotactically injected into the left cerebral hemisphere at coordinates (AP: 0.5 mm, LM: 2.5 mm, DV: 3 mm) from the bregma and skull at a volume of 5 μl and at a rate of 1 μl/min. The needle was left in place for 5 min after injection.
BLI was conducted using a Xenogen Lumina optical imaging system (Caliper Life Sciences, Hopkinton, Mass.). Mice were anesthetized with isofluorane before intraperitoneal injections of luciferin at a dose of 150 mg/kg, providing a saturating substrate concentration for luciferase enzyme. Peak luminescent signals were recorded 10 minutes after luciferin injection. Regions of interest encompassing the intracranial area of signal were defined using Living Image software, and the total photons/s/steradian/cm^2 was recorded.
Raji murine CNS lymphoma model was created as described in in vivo study section. After bioluminesence imaging (BLI) scanning on day 4 post intracerebral injection, animals were randomly assigned to four different groups. […] […] BLI was used for real time monitoring of tumor growth. Differences in tumor growth were statistically analyzed by ANOVA.

osteopontin = assay: Osteopontin secretion ELISA in Raji cells; type: cell-based, human; conditions: culture medium, four days
Experimental: 10^5 Raji lymphoma cells were seeded in 5 ml media in 6-well plates in triplicate and were grown for four days. Cells were pelleted and the media was collected for analysis. Duplicate four hundred microliters of media supernatant were assayed for osteopontin by ELISA using Quantikine human osteopontin ELISA kit (R&D Systems, Inc., Minneapolis, Minn.). Statistical analysis was performed using two-tailed Student's T-Test.

## CN1C(=O)N[C@H]2[C@@H]3NC(=O)c4ccc(Br)n4[C@@H]3C[C@]21O [AA, agelastatin A, reference compound]
Raji lymphoma cells [1]
  Raji lymphoma cell proliferation: significantly suppressed proliferation; also recorded: decreases Raji lymphoma cell proliferation
Raji lymphoma cells [2]
  CNS lymphoma tumor growth (BLI): significantly decreased the tumor growth; also recorded: therapeutic effect of AA treatment on the CNS lymphoma growth
  survival (Kaplan-Meier): significantly prolonged the survival; also recorded: survival prolongation
osteopontin
  OPN secretion by Raji cells (ELISA): significantly decreased secretion of osteopontin; also recorded: decreases OPN secretion
